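Protocol summary: plate cells (96-well), add compound at 5 concentrations, incubate 48 h, interpolate endpoints linearly. GI50: concentration for 50% inhibition of growth. TGI: concentration producing complete growth inhibition.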
How the values were obtained:
Assay in all cases: inhibition of tumour cell growth, NCI panel, 48 h
OVCAR-3 ovarian = tested on: OVCAR-3 ovarian
UO-31 renal = tested on: UO-31 renal
PC-3 prostate = tested on: PC-3 prostate
HL-60(TB) leukemia = tested on: HL-60(TB) leukemia
SF-539 CNS = tested on: SF-539 CNS
RPMI-8226 leukemia = tested on: RPMI-8226 leukemia
MDA-MB-435 = tested on: MDA-MB-435
TK-10 renal = tested on: TK-10 renal
KM20L2 colon = tested on: KM20L2 colon
DMS 114 small cell lung = tested on: DMS 114 small cell lung

| Compound | GI50 (OVCAR-3 ovarian) | TGI (OVCAR-3 ovarian) | GI50 (UO-31 renal) | TGI (UO-31 renal) | GI50 (PC-3 prostate) | TGI (PC-3 prostate) | GI50 (HL-60(TB) leukemia) | TGI (HL-60(TB) leukemia) | GI50 (SF-539 CNS) | TGI (SF-539 CNS) | GI50 (RPMI-8226 leukemia) | TGI (RPMI-8226 leukemia) | GI50 (MDA-MB-435) | TGI (MDA-MB-435) | GI50 (TK-10 renal) | TGI (TK-10 renal) | TGI (KM20L2 colon) | TGI (DMS 114 small cell lung) |
| --- | --- | --- | --- | --- | --- | --- | --- | --- | --- | --- | --- | --- | --- | --- | --- | --- | --- | --- |
| CCn1c(-c2nonc2N)nc2ccccc21 | > 25000 nM | > 25 µM | > 25 µM | > 25 µM | > 25000 nM | > 25 µM | > 25000 nM | > 25 µM | > 25000 nM | > 25 µM | > 25000 nM | > 25 µM | > 25000 nM | > 25 µM | 7.32 µM | > 25 µM |  |  |
| Nc1ccc(CC[C@H]2CCC/C=C/[C@@H]3C[C@H](O)C[C@H]3[C@H](O)/C=C/C(=O)O2)cc1 | 28.2 nM | 0.0769 µM | 0.0276 µM | 2.34 µM | 49.4 nM | > 100 µM | 53.5 nM | 1.55 µM | 56.2 nM | > 100 µM | 32.2 nM | 0.121 µM | 38.8 nM | 25.2 µM | 0.0382 µM | 0.831 µM |  |  |
| CC1(C)N=C(N)N=C(N)N1c1ccc(CCCC(=O)Nc2ccc(S(=O)(=O)F)cc2)cc1 | 33600 nM | > 100 µM | > 100 µM | > 100 µM | 469 nM | > 100 µM | 3470 nM | > 100 µM | 2620 nM | > 100 µM | 5360 nM | > 100 µM | 3750 nM | > 100 µM | 7.63 µM | > 100 µM |  |  |
| CC[C@H](C)[C@H](NC(=O)C12C3C4C1C1C2C3C41NC)C(=O)N(C)[C@H](C[C@@H](OC(C)=O)c1nc(C(=O)N[C@@H](Cc2ccccc2)C[C@H](C)C(=O)OC)cs1)C(C)C (stereo partly specified) | 87.2 nM | 1.02 µM | 4.16 µM | > 14.3 µM | 645 nM | > 14.3 µM | 56.8 nM | 0.346 µM | 546 nM | > 6.08 µM | 143 nM | > 6.29 µM | 48.9 nM | 0.377 µM | > 4 µM | > 14.3 µM |  |  |
| COc1cccc(C2CC(=O)Nc3c2c(C)nn3-c2nc3ccccc3[nH]2)c1OC (stereo unspecified) | 4550 nM | 19.8 µM | 3.35 µM | 23.6 µM | 4440 nM | 60.5 µM | 2970 nM | 13.8 µM | 2760 nM | 9.38 µM | 3210 nM | 10.6 µM | 3000 nM | 12 µM | 6.8 µM | > 100 µM |  |  |
| Cc1cc(Cl)ccc1N=C1NC(=O)C(CC(=O)Nc2cccc(Cl)c2)S1 (stereo unspecified) |  | > 100 µM |  | > 100 µM |  |  |  | > 100 µM |  | > 100 µM |  |  |  |  |  | > 100 µM | > 100 µM | > 100 µM |
| Clc1ccc2c(NCCNc3nc(N4CCOCC4)nc4ccccc34)ccnc2c1 | 1840 nM | 3.53 µM | 1.34 µM | 2.68 µM | 4500 nM | 17.1 µM | 1090 nM | 3.12 µM | 1730 nM | 3.34 µM | 1720 nM | 5.17 µM | 2340 nM | 5.88 µM | 1.83 µM | 3.39 µM |  |  |
| Cc1ccc(-c2nc(NCCOCCOCCN)nc(N3CCN(c4ccccn4)CC3)n2)cc1 | 16900 nM | 31.2 µM | 13.3 µM | 29.9 µM | 15500 nM | 31 µM | 18700 nM | 40.5 µM | 16800 nM | 35.1 µM | 10600 nM | 32.8 µM | 10500 nM | 30.2 µM | 18.5 µM | 34.9 µM |  |  |
| COc1cccc(/C=C2\N=C(c3ccccc3)OC2=O)c1 |  | > 100 µM |  | > 100 µM |  | > 100 µM |  | 26 µM |  | > 100 µM |  | 94.1 µM |  | > 100 µM |  | > 100 µM |  |  |
| CC(=O)c1cc2c(N)c(C(=O)Nc3cccc4ccccc34)sc2nc1C | 1670 nM | 11.4 µM | 4.27 µM | > 50 µM | 1750 nM | > 50 µM | 1360 nM | 4.35 µM | 1160 nM | 3.99 µM | 1760 nM | > 50 µM | 178 nM | 1.08 µM | 3.77 µM | > 50 µM |  |  |
| COc1cc2ncn(-c3cc(OCc4ccccc4C(F)(F)F)c(C(N)=O)s3)c2cc1OC | 83.8 nM | 0.794 µM | > 18.4 µM | > 25 µM | 214 nM | > 25 µM | 36.1 nM | > 25 µM | 139 nM | > 11.6 µM | 278 nM | > 25 µM | 55.2 nM | 0.282 µM | 3.29 µM | 12.8 µM |  |  |
| CC1(C)CC(O)CC(C)(C)N1O |  | > 100 µM |  | > 100 µM |  | > 100 µM | > 100000 nM | > 100 µM |  | > 100 µM |  | > 100 µM |  | > 100 µM |  | > 100 µM |  |  |
| Cn1c(=O)c(-c2ccccc2Cl)cc2cnc(NC3CCOCC3)nc21 | > 22700 nM | > 25 µM | 6.8 µM | > 22.4 µM | 21400 nM | > 25 µM | 10500 nM | > 25 µM | 11100 nM | > 25 µM | > 15700 nM | > 25 µM | 7220 nM | > 25 µM | 6.19 µM | > 22.9 µM |  |  |
| Nc1ncn([C@H]2CC(O)[C@@H](CO)S2)c(=O)n1 (stereo partly specified) | 6080 nM | > 100 µM | 2.93 µM | > 100 µM | 8930 nM | > 100 µM | 5270 nM | > 100 µM | 16700 nM | > 100 µM | 6220 nM | > 100 µM | 783 nM | > 100 µM | 36.3 µM | > 100 µM |  |  |
| COc1cc(N=Nc2cc(Cc3ccc(N(C)C)cc3)c(N)cc2N(C)C)c2ncccc2c1 | 40.6 nM | 1.08 µM | 0.252 µM | 1.97 µM | 293 nM | 3.03 µM | 267 nM | 1.36 µM | 705 nM | 2.06 µM | 313 nM | 2.1 µM | 515 nM | 2.07 µM | 1.62 µM | 4.36 µM |  |  |

Reference: PubChem BioAssay (NCI)
